Measured values published in US20210215710A1, “METHODS FOR USE OF CDX2 AS A BIOMARKER TO GUIDE USE OF AUTOPHAGY INHIBITORS IN OVARIAN CANCER” (UNIVERSITY HEALTH NETWORK, priority 2019, published 2021).

How the values were obtained:
[1] = tested on: CDX2(+) derived cell lines D4 and B2; assay: Long-term nutritional deprivation, cellular survival of cell colonies in vitro; assay type: cell-based
Description: FIG. 6A depicts bar graphs that illustrate the long-term effect of nutritional deprivation on cellular survival in CDX2(−) and CDX2(+) cell colonies in vitro and the effect of treatment with autophagy inhibitors. […] P<0.001.

OVCA429 CDX2 = assay: cells; conditions: Homo sapiens, OVCA429, 48 h, read-out: 48 h IC50 CQ in adherent culture
Description: (§1) FIG. 7 depicts bar graphs that illustrate the results of an OVCA429 soft agar assay. […] This confirms the effect in human high grade serous ovarian cancer cells. […] CDX2(−) at left. […] P<0.005.

OVCA429 GAL (CDX2(−)) = assay: cells; conditions: Homo sapiens, OVCA429, 48 h, read-out: 48 h IC50 CQ in adherent culture
Description: as §1

[2] = tested on: CDX2(+) ovarian tumours in mice; assay: Survival of mice with ovarian tumours treated with chloroquine; assay type: in vivo, mouse; conditions: chloroquine 10 mg/kg 3 times a week, initiated 30 days after delivery of tumor cells
Description: For all experiments aged females (9-10 month) were used, as these represent targeted patient population (e.g., peri-menopausal women). Mice were sacrificed when ascites formed.

[3] = tested on: CDX2(+) ovarian cancer cells; assay: Hanging drop assay under starvation conditions; assay type: cell-based, mouse
Description: FIG. 3A depicts a CDX2(−) parental control. FIGS. 3B and 3C depict CDX2(+) derived cell lines. The mouse ovarian cancer cell line MOSEC5 that is CDX2(−) was genetically modified to create CDX2(+) derived cell lines. Cells were placed in a “hanging drop” assay under starvation conditions.

Cdx2-expressing cells = assay: Expression of autophagy genes after chloroquine in Cdx2-expressing cells; assay type: cell-based

Row | SMILES | survival of CDX2(+) cells after long-term stress [1] | IC50 (OVCA429 CDX2) | IC50 (OVCA429 GAL (CDX2(−))) | survival of mice [2] | survival of mice ([2]; listed as Chloroquine) | cancer cell survival [3] | inhibition of autophagy [3] | LAM P1 gene expression (Cdx2-expressing cells) | NPC gene expression (Cdx2-expressing cells) | SQSTM1 gene expression (Cdx2-expressing cells) | ULK2 gene expression (Cdx2-expressing cells) | WIPI1 gene expression (Cdx2-expressing cells)
1 | Cn1cnc(N)c2ncnc1-2 [3-methyladenine] | reverse this survival | – | – | – | – | – | – | – | – | – | – | –
2 | CCN(CC)CCCC(C)Nc1ccnc2cc(Cl)ccc12 (stereo not shown) [chloroquine] | reverse this survival | 9.3 µM | 11.5 µM | prolongs survival of mice with ovarian tumours | improved survival in CDX2(+) mice | reduce cancer cell survival | did inhibit autophagy | down-regulated | significantly up-regulated | significantly up-regulated | down-regulated | significantly up-regulated
